From US12606568B2, “SMARCA degraders and uses thereof” (Kymera Therapeutics, Inc., priority 2020, dated 2026)

Columns and labels:
Assay type in all cases: cell-based
SMARCA2 [1] = biological target: T1, SMARCA2 (Homo sapiens, UniProt P51531); experiment: MSD SMARCA2 degradation in A549 cell line; set-up: endogenous in cells; conditions: for Dmax: A549, A549 cells; for Dmax / DC50: 24 h; for DC50 / SMARCA2 MSD A549 degradation 24 h: Average Dmax %: A549 cells; for DC50: read-out: SMARCA2 MSD A549 degradation 24 h: Average external-Abs DC50
Outline: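 A549 cells treated 24 h with compound, 3-fold series 1000 nM down to 0.152 nM plus DMSO. RIPA lysates captured on MSD plates, probed with rabbit anti-SMARCA2/BRM (1 µg/ml) then SULFO-TAG anti-rabbit, electrochemiluminescence read. DC50 and 24 h Dmax reported as letter bins.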

SMARCA4 = biological target: T2, SMARCA4 (Homo sapiens, UniProt P51532); experiment: SMARCA4 Western blot MV4-11 degradation; conditions: for Dmax: MV4-11, MV4-11 cells, read-out: SMARCA4 MSD MV411 degradation 24 h: average Dmax %; for Dmax / DC50: 24 h; for DC50 / SMARCA4 MSD MV411 degradation 24 h: average Dmax %: MV4-11 cells; for DC50: read-out: SMARCA4 MSD MV411 degradation 24 h: Mean external-Abs DC50
T2 construct: SMARCA2 and SMARCA4 protein degradation in MV4-11 cells; endogenous in cells; host or cells: MV4-11

SMARCA2 [2] = biological target: T1, SMARCA2; experiment: SMARCA2 Western blot MV4-11 degradation; set-up: SMARCA2 and SMARCA4 protein degradation in MV4-11 cells; endogenous in cells; host or cells: MV4-11; conditions: for Dmax: MV4-11, MV4-11 cells, read-out: SMARCA2 MSD MV411 degradation 24 h: average Dmax %; for Dmax / DC50: 24 h; for DC50 / SMARCA2 MSD MV411 degradation 24 h: average Dmax %: MV4-11 cells; for DC50: read-out: SMARCA2 MSD MV411 degradation 24 h: Mean external-Abs DC50

T2 sequence (P51532 whole entry): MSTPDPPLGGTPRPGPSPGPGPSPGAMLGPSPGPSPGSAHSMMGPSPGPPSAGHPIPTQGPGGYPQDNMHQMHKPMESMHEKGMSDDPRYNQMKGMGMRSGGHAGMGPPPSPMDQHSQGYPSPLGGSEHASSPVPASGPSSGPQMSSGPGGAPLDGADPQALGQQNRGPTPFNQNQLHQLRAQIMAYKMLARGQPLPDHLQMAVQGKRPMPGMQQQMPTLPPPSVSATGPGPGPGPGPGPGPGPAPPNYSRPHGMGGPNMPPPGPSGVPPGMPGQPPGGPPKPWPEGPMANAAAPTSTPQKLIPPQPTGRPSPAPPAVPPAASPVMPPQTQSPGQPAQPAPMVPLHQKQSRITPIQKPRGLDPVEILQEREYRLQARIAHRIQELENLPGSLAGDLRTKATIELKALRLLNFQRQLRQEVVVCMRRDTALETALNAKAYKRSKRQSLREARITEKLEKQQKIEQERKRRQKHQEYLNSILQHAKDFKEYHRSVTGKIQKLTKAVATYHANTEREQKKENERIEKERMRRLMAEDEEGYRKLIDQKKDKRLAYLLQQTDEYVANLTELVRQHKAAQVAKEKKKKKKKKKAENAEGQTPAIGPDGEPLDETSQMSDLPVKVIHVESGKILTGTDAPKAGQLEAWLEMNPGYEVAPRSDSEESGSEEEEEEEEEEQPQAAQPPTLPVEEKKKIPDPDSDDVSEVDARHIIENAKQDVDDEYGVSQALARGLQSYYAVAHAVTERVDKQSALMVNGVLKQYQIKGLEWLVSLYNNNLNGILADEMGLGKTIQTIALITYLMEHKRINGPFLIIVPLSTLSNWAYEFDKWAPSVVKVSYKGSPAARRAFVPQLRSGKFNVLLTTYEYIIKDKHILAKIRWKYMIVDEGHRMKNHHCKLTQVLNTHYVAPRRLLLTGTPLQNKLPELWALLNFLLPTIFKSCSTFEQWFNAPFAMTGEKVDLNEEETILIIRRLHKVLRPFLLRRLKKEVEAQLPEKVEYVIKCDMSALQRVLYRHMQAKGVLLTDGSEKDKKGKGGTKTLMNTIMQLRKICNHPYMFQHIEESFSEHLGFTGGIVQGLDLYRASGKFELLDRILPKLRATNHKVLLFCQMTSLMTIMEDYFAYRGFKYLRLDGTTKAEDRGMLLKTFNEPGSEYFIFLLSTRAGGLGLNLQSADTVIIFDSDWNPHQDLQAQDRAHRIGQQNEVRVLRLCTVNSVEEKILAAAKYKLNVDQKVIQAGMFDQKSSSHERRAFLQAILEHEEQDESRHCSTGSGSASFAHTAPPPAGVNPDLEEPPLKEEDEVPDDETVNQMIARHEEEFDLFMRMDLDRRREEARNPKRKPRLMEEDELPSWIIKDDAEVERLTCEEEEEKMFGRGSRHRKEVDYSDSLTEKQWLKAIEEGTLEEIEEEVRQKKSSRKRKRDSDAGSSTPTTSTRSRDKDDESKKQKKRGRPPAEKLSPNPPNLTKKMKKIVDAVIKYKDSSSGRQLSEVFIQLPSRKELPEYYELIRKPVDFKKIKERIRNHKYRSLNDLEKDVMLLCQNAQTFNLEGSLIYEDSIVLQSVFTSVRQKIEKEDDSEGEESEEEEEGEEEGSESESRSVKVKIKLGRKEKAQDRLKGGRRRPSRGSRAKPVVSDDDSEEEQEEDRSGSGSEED
T1 sequence (P51531 whole entry): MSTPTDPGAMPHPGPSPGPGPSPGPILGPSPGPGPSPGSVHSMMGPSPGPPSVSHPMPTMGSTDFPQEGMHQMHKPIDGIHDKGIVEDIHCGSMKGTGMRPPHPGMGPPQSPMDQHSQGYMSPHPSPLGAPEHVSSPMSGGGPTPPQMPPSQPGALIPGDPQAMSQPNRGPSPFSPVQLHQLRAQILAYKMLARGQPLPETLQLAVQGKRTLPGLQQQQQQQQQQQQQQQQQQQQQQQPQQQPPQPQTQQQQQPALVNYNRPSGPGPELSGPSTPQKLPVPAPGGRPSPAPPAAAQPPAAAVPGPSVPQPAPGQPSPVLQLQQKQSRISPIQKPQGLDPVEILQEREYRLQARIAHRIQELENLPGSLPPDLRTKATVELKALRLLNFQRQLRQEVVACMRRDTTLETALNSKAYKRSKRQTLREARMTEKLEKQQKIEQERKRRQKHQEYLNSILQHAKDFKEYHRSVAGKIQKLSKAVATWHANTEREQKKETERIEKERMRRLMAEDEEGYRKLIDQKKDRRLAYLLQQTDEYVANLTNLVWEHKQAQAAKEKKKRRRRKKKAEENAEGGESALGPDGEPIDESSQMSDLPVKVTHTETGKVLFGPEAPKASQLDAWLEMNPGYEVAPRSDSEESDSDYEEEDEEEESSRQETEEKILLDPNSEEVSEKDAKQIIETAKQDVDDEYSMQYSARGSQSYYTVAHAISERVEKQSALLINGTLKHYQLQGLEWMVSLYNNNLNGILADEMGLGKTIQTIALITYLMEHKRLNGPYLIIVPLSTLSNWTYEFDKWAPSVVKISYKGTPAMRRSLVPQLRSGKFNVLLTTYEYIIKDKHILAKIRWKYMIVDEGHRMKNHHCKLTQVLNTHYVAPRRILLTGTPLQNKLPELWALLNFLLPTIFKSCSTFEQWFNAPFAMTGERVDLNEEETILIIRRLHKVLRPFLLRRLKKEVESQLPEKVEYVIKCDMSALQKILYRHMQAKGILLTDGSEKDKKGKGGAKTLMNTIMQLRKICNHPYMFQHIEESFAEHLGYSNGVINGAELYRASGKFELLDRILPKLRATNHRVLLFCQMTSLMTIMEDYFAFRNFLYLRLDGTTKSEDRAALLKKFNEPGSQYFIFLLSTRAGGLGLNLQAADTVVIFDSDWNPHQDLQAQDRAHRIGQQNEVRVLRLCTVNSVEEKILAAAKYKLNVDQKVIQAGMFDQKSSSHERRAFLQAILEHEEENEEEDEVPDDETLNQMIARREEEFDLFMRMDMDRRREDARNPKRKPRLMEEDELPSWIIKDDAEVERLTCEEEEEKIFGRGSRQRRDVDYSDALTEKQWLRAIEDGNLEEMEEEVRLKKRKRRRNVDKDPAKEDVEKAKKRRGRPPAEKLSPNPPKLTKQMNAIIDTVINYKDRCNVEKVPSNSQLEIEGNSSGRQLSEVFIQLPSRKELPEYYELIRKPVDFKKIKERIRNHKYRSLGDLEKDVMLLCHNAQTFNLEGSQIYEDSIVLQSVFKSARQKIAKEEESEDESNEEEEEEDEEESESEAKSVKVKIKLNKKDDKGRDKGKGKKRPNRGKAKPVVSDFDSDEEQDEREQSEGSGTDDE

SMILES | Dmax (SMARCA2 [1]) | DC50 (SMARCA2 [1]) | Dmax (SMARCA4) | DC50 (SMARCA4) | Dmax (SMARCA2 [2]) | DC50 (SMARCA2 [2]) | SMARCA2 MSD A549 degradation 24 h: Average Dmax % (SMARCA2 [1]) | SMARCA4 MSD MV411 degradation 24 h: average Dmax % (SMARCA4) | SMARCA2 MSD MV411 degradation 24 h: average Dmax % (SMARCA2 [2])
Cc1ncsc1-c1ccc(CNC(=O)[C@@H]2C[C@@H](O)CN2C(=O)[C@@H](NC(=O)[C@H]2CC3(CC[C@H](N4CCC(c5cnc(N6C7CCC6CN(c6cc(-c8ccccc8O)nnc6N)C7)nc5)CC4)CC3)C2)C(C)(C)C)cc1 (some centres unmarked) [I-13] | > 90% | < 100 nM | 70 to 90% | > 1000 nM | 70 to 90% | < 100 nM |  |  | 
Cc1ncsc1-c1ccc(CNC(=O)[C@@H]2C[C@@H](O)CN2C(=O)[C@@H](NC(=O)[C@H]2CC3(CC[C@H](N4CCC(c5cnc(N6C7CCC6CN(c6cc(-c8ccccc8O)nnc6N)C7)nc5)CC4)CC3)C2)C(C)(C)C)cc1 (stereo partly drawn) [I-14, (2S,4R)-1-((2S)-2-(7-(4-(2-(3-(3-amino-6-(2-hydroxyphenyl)pyridazin-4-yl)-3,8-diazabicyclo[3.2.1]octan-8-yl)pyrimidin-5-yl)piperidin-1-yl)spiro[3.5]nonane-2-carboxamido)-3,3-dimethylbutanoyl)-4-hydroxy-N-(4-(4-methylthiazol-5-yl)benzyl)pyrrolidine-2-carboxamide] |  | < 100 nM |  | > 1000 nM |  | < 100 nM | B (B (>70-90% o degradation)) | B (B (>70-90% degradation)) | B (B (>70-90% degradation))
Cc1ncsc1-c1ccc([C@H](C)NC(=O)[C@@H]2C[C@@H](O)CN2C(=O)[C@@H](NC(=O)[C@H]2CCC3(CC2)C[C@H](N2CCC(c4cnc(N5C6CCC5CN(c5cc(-c7ccccc7O)nnc5N)C6)nc4)CC2)C3)C(C)(C)C)cc1 (stereo partly drawn) [I-16, (2S,4R)-1-((2S)-2-(2-(4-(2-(3-(3-amino-6-(2-hydroxyphenyl)pyridazin-4-yl)-3,8-diazabicyclo[3.2.1]octan-8-yl)pyrimidin-5-yl)piperidin-1-yl)spiro[3.5]nonane-7-carboxamido)-3,3-dimethylbutanoyl)-4-hydroxy-N—((S)-1-(4-(4-methylthiazol-5-yl)phenyl)ethyl)pyrrolidine-2-carboxamide] |  | 100 to 500 nM |  | < 100 nM |  | < 100 nM | A (A (>90% o degradation)) | B (B (>70-90% degradation)) | A (A (>90% degradation))
Cc1ncsc1-c1ccc(CNC(=O)[C@@H]2C[C@@H](O)CN2C(=O)C(c2cc(OCCCOCCCN3CCC(Cn4cc(-c5cc(-c6ccccc6O)nnc5N)cn4)CC3)no2)C(C)C)cc1 (stereo partly drawn) [I-21, (2S,4R)-1-(2-(3-(3-(3-(4-((4-(3-amino-6-(2-hydroxyphenyl)pyridazin-4-yl)-1H-pyrazol-1-yl)methyl)piperidin-1-yl)propoxy)propoxy)isoxazol-5-yl)-3-methylbutanoyl)-4-hydroxy-N-(4-(4-methylthiazol-5-yl)benzyl)pyrrolidine-2-carboxamide] | > 90% | > 1000 nM | 70 to 90% | 501 to 1000 nM | > 90% | < 100 nM |  |  | 
Cc1ncsc1-c1ccc(CNC(=O)[C@@H]2C[C@@H](O)CN2C(=O)C(c2cc(OCCN3CCC(O[C@H]4C[C@H](Oc5cc(N6C7CCC6CN(c6cc(-c8ccccc8O)nnc6N)C7)ccn5)C4)CC3)no2)C(C)C)cc1 (stereo partly drawn) [I-22, (2S,4R)-1-(2-(3-(2-(4-((1r,3r)-3-((4-(3-(3-amino-6-(2-hydroxyphenyl)pyridazin-4-yl)-3,8-diazabicyclo[3.2.1]octan-8-yl)pyridin-2-yl)oxy)cyclobutoxy)piperidin-1-yl)ethoxy)isoxazol-5-yl)-3-methylbutanoyl)-4-hydroxy-N-(4-(4-methylthiazol-5-yl)benzyl)pyrrolidine-2-carboxamide] | > 90% | 501 to 1000 nM | > 90% | > 1000 nM | 70 to 90% | < 100 nM |  |  | 
Cc1ncsc1-c1ccc(CNC(=O)[C@@H]2C[C@@H](O)CN2C(=O)[C@@H](NC(=O)[C@H]2CC3(C2)C[C@H](N2CCC(c4ccc(N5C6CCC5CN(c5cc(-c7ccccc7O)nnc5N)C6)cc4)CC2)C3)C(C)(C)C)nc1 (stereo partly drawn) [I-23, (2S,4R)-1-((2S)-2-(6-(4-(4-(3-(3-amino-6-(2-hydroxyphenyl)pyridazin-4-yl)-3,8-diazabicyclo[3.2.1]octan-8-yl)phenyl)piperidin-1-yl)spiro[3.3]heptane-2-carboxamido)-3,3-dimethylbutanoyl)-4-hydroxy-N-((5-(4-methylthiazol-5-yl)pyridin-2-yl)methyl)pyrrolidine-2-carboxamide] | < 50% | > 1000 nM | < 50% | > 1000 nM | < 50% | 100 to 500 nM |  |  | 
Cc1ncsc1-c1ccc(CNC(=O)[C@@H]2C[C@@H](O)CN2C(=O)[C@@H](NC(=O)[C@H]2CC3(C2)C[C@H](N2CCC(c4ccc(N5C6CCC5CN(c5cc(-c7ccccc7O)nnc5N)C6)cc4)CC2)C3)C(C)(C)C)nc1 (stereo partly drawn) [I-24, (2S,4R)-1-((2S)-2-(6-(4-(4-(3-(3-amino-6-(2-hydroxyphenyl)pyridazin-4-yl)-3,8-diazabicyclo[3.2.1]octan-8-yl)phenyl)piperidin-1-yl)spiro[3.3]heptane-2-carboxamido)-3,3-dimethylbutanoyl)-4-hydroxy-N-((5-(4-methylthiazol-5-yl)pyridin-2-yl)methyl)pyrrolidine-2-carboxamide] |  | > 1000 nM |  | > 1000 nM |  | 100 to 500 nM |  |  | 
Cc1ncsc1-c1cnc(CNC(=O)[C@@H]2C[C@@H](O)CN2C(=O)[C@@H](NC(=O)[C@H]2CC3(C2)C[C@H](N2CCC(c4ccc(N5C6CCC5CN(c5cc(-c7ccccc7O)nnc5N)C6)cc4)CC2)C3)C(C)(C)C)nc1 (stereo partly drawn) [I-25, (2S,4R)-1-((2S)-2-(6-(4-(4-(3-(3-amino-6-(2-hydroxyphenyl)pyridazin-4-yl)-3,8-diazabicyclo [3.2.1]octan-8-yl)phenyl)piperidin-1-yl)spiro[3.3]heptane-2-carboxamido)-3,3-dimethylbutanoyl)-4-hydroxy-N-((5-(4-methylthiazol-5-yl)pyrimidin-2-yl)methyl)pyrrolidine-2-carboxamide] | < 50% | > 1000 nM | < 50% | > 1000 nM | < 50% | > 1000 nM |  |  | 
Cc1ncsc1-c1ccc(CNC(=O)[C@@H]2C[C@@H](O)CN2C(=O)[C@@H](NC(=O)[C@H]2CC3(C2)C[C@H](N2CCC(c4ccc(N5C6CCC5CN(c5cc(-c7ccccc7O)nnc5N)C6)cc4)CC2)C3)C(C)(C)C)cn1 (stereo partly drawn) [I-27, (2S,4R)-1-((2S)-2-(6-(4-(4-(3-(3-amino-6-(2-hydroxyphenyl)pyridazin-4-yl)-3,8-diazabicyclo[3.2.1]octan-8-yl)phenyl)piperidin-1-yl)spiro[3.3]heptane-2-carboxamido)-3,3-dimethylbutanoyl)-4-hydroxy-N-((6-(4-methylthiazol-5-yl)pyridin-3-yl)methyl)pyrrolidine-2-carboxamide] | < 50% | > 1000 nM | < 50% | > 1000 nM | < 50% | 100 to 500 nM |  |  | 
Cc1ncsc1-c1ccc(CNC(=O)[C@@H]2C[C@@H](O)CN2C(=O)[C@@H](NC(=O)[C@H]2CC3(C2)C[C@H](N2CCC(c4ccc(N5C6CCC5CN(c5cc(-c7ccccc7O)nnc5N)C6)cc4)CC2)C3)C(C)(C)C)cn1 (stereo partly drawn) [I-28, (2S,4R)-1-((2S)-2-(6-(4-(4-(3-(3-amino-6-(2-hydroxyphenyl)pyridazin-4-yl)-3,8-diazabicyclo[3.2.1]octan-8-yl)phenyl)piperidin-1-yl)spiro[3.3]heptane-2-carboxamido)-3,3-dimethylbutanoyl)-4-hydroxy-N-((6-(4-methylthiazol-5-yl)pyridin-3-yl)methyl)pyrrolidine-2-carboxamide] |  | > 1000 nM |  | > 1000 nM |  | 100 to 500 nM |  |  | 
Cc1ncsc1-c1cnc(CNC(=O)[C@@H]2C[C@@H](O)CN2C(=O)[C@@H](NC(=O)[C@H]2CC3(C2)C[C@H](N2CCC(c4ccc(N5C6CCC5CN(c5cc(-c7ccccc7O)nnc5N)C6)cc4)CC2)C3)C(C)(C)C)cn1 (stereo partly drawn) [I-29, (2S,4R)-1-((2S)-2-(6-(4-(4-(3-(3-amino-6-(2-hydroxyphenyl)pyridazin-4-yl)-3,8-diazabicyclo[3.2.1]octan-8-yl)phenyl)piperidin-1-yl)spiro[3.3]heptane-2-carboxamido)-3,3-dimethylbutanoyl)-4-hydroxy-N-((5-(4-methylthiazol-5-yl)pyrazin-2-yl)methyl)pyrrolidine-2-carboxamide] | < 50% | > 1000 nM | 50 to 70% | > 1000 nM | < 50% | > 1000 nM |  |  | 
Cc1n[nH]c(C)c1-c1ccc(CNC(=O)[C@@H]2C[C@@H](O)CN2C(=O)[C@@H](NC(=O)[C@H]2CC3(C2)C[C@H](N2CCC(c4cnc(N5C6CCC5CN(c5cc(-c7ccccc7O)nnc5N)C6)nc4)CC2)C3)C(C)(C)C)cc1 (stereo partly drawn) [I-31, (2S,4R)-1-((2S)-2-(6-(4-(2-(3-(3-amino-6-(2-hydroxyphenyl)pyridazin-4-yl)-3,8-diazabicyclo[3.2.1]octan-8-yl)pyrimidin-5-yl)piperidin-1-yl)spiro[3.3]heptane-2-carboxamido)-3,3-dimethylbutanoyl)-N-(4-(3,5-dimethyl-1H-pyrazol-4-yl)benzyl)-4-hydroxypyrrolidine-2-carboxamide] | < 50% |  | < 50% | > 1000 nM | 50 to 70% | < 100 nM |  |  | 
